Read-outs that look alike come from different tables or passages of the source.
Columns and labels:
[1] = tested on: Human RSV-A (“Long” strain); assay: RSV-A assay: inhibition of cytopathic effect in Hep-2 cells, ATPlite readout; format: cell-based, Human respiratory syncytial virus (HRSV); conditions: human respiratory syncytial virus, read-out: Human RSV-A (“Long” strain) EC50
Procedure, shortened: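 Hep-2 cells (8,000/well) were infected with RSV-A Long at MOI 0.1 alongside duplicate 2-fold compound dilutions. After 5 days, cell viability was read by ATPlite luminescence to give EC50. CC50 came from a parallel plate without virus.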

[2] = tested on: RSV-B, genotype B, strain 9320; assay: RSV-B assay: A549 cells infected with RSV-B, qPCR or ATPlite readout; format: cell-based, Human respiratory syncytial virus (HRSV); conditions: human respiratory syncytial virus
Description: Hep-2 cells, (originally derived from tumors grown in irradiated-cortisonised weanling rats that had been injected with epidermoid carcinoma tissue from a person's larynx, but later found to be indistinguishable from HeLa cells by PCR DNA analysis), were used for the culturing of genotype B, strain 9320. Flasks were inoculated with RSV-B and viral stocks were collected once cytopathic effect (CPE) was greater than […]. Viral stocks in 25% o sucrose media were snap frozen using liquid nitrogen to increase viral stability. Viral stock titers were quantified by tissue culture infectious dose 50% o (TCID50) using 8,000 cells per well and 5-fold viral dilutions across a 96-well plate, cultured for 4 days. Viral stock titers were also quantified by a plaque forming unit assay, as described elsewhere.
The assay is run as follows: A549 cells (originally derived through explant culture from a person's carcinomatous lung tissue) are seeded into the inner 60 wells of a 96-well plate at 3,000 cells per well in a volume of 50 μL using A549 growth media (F-12K Media, 1% Penn/Strep, 1% nonessential amino acids, 10% heat-inactivated FBS). 2-fold serial dilutions of control and test compounds are added to the wells in duplicate in a total volume of 25 μL. Viral stock is then added to the wells at a multiplicity of infection (MOI) of 0.5 in a volume of 25 μL, bringing the total volume of each well to 100 μL. The MOI is calculated using the PFU/mL, or TCID50 if unavailable. Each 96-well plate has a control column of 6 wells with cells and virus but no compound (negative control, max CPE), a column with cells but no compound or virus (positive control, minimum CPE), and a column with no cells or virus or compound (background plate/reagent control). The control wells with cells but no virus are given an additional 25 uL of growth media containing an equal quantity of sucrose as those wells receiving the viral stock in order to keep consistent in media and volume conditions. The outer wells of the plate are filled with 125 μL of moat media (DMEM, 1% Penn/Strep) to act as a thermal and evaporative moat around the test wells. 6 days post infection, the plates are read using qPCR or ATP lite (50 uL added per well), which quantifies the amount of ATP (a measure of cell health) present in each well. Assay plates treated with APTlite are read using the Envision luminometer. […] EC50 ranges are as follows: A<0.4 μM; B 0.4-0.8 μM; C>0.8 μM.

[3] = Cytotoxicity on parallel plate without virus, ATPlite readout; format: cell-based; conditions: human, Hep-2 cells (no virus), Hep-2 cells without virus, 5-day incubation
Procedure: Following extensive parameter testing, the final assay is run as follows: Hep-2 cells are seeded into the inner 60 wells of a 96-well plate at 8,000 cells per well in a volume of 50 μL using Growth Media (DMEM without phenol red, 1% L-Glut, 1% Penn/Strep, 1% nonessential amino acids, 10% heat-inactivated FBS). 2-fold serial dilutions of control and test compounds are added to the wells in duplicate in a total volume of 25 μL. Viral stock is then added to the wells at a multiplicity of infection (MOI) of 0.1 in a volume of 25 μL, bringing the total volume of each well to 100 μL. The MOI is calculated using the PFU/mL, or TCID50 if unavailable. Each 96-well plate has a control column of 6 wells with cells and virus but no compound (negative control, max CPE), a column with cells but no compound or virus (positive control, minimum CPE), and a column with no cells or virus or compound (background plate/reagent control). The control wells with cells but no virus are given an additional 25 uL of growth media containing an equal quantity of sucrose as those wells receiving the viral stock in order to keep consistent in media and volume conditions. The outer wells of the plate are filled with 125 μL of moat media (DMEM, 1% Penn/Strep) to act as a thermal and evaporative moat around the test wells. Following a 5-day incubation period, the plates are read using ATPlite (50 uL added per well), which quantifies the amount of ATP (a measure of cell health) present in each well. Assay plates are read using the Envision luminometer. In parallel, cytotoxicity is examined on an additional 96-well plate treated in an identical manner, but substituting the 25 μL of viral stock for 25 μL of growth media. […] EC50 ranges are as follows: A<0.4 μM; B 0.4-0.8 μM; C>0.8 μM and CC50 ranges are as follows: A>50 μM; B 10-50 μM; C<10 μM.

[4] = A549, read-out: Human RSV-B EC50
[5] = 120 h, Hep-2 cells, MOI 0.1, 5-day incubation, ATPlite
[6] = A549 cells infected with RSV-B strain 9320, MOI 0.5, read-out: Human RSV-B EC50

SMILES | EC50 ([1]; HEp-2, 120 h) [nM] | EC50 [2, 4] [nM] | CC50 at 5 days [3] [nM] | EC50 [1, 5] [nM] | EC50 [2, 6] [nM]
O=C1Nc2ccccc2C(c2ccccc2)=NC1Nc1ccc(-c2ccccc2)nn1 (centres unmarked) [Example 95] | 400 to 800 | > 800 | – | – | –
O=C1Nc2ccccc2C(c2ccccc2)=NC1Nc1nc2ccc(Cl)cc2o1 (centres unmarked) [Example 99] | > 800 | – | 10000 to 50000 | – | –
O=C1Nc2ccccc2C(c2ccccc2)=NC1Nc1nc2ccccc2o1 (centres unmarked) [Example 100] | > 800 | – | 10000 to 50000 | – | –
O=C1Nc2ccccc2C(c2ccccc2)=NC1Nc1nc2ccccc2s1 (centres unmarked) [Example 101] | > 800 | – | 10000 to 50000 | – | –
O=C1Nc2ccccc2C(c2ccccc2)=NC1Nc1nc2ccc(F)cc2o1 (centres unmarked) [Example 103] | > 800 | – | 10000 to 50000 | – | –
O=C1Nc2ccccc2C(c2ccccc2)=NC1Nc1nc2cc(F)ccc2o1 (centres unmarked) [Example 104] | > 800 | – | 10000 to 50000 | – | –
O=C1Nc2ccccc2C(c2ccccc2)=NC1Nc1nc2c(F)cccc2o1 (centres unmarked) [Example 105] | > 800 | – | > 50000 | – | –
Cc1ccc2oc(NC3N=C(c4ccccc4)c4ccccc4NC3=O)nc2c1 (centres unmarked) [Example 106] | > 800 | – | < 10000 | – | –
CN(C)c1ccc(-c2nnc(NC3N=C(c4ccccc4)c4ccccc4NC3=O)o2)nc1 (centres unmarked) [Example 108] | > 800 | > 800 | – | – | –
O=C1Nc2ccccc2C(c2ccccc2)=NC1Nc1nnc(-c2cccnc2N2CCOCC2)o1 (centres unmarked) [Example 120] | < 400 | 400 to 800 | – | – | –
O=C1Nc2ccccc2C(c2ccccc2)=NC1Nc1nnc(-c2ccc(C(F)(F)F)cc2N2CCOCC2)o1 (centres unmarked) [Example 123] | < 400 | 400 to 800 | – | – | –
O=C1Nc2ccccc2C(c2ccccc2)=NC1Nc1nnc(-c2ccc(N3CCOCC3)cc2)o1 (centres unmarked) [Example 124] | – | < 400 | – | – | –
O=C1Nc2ccccc2C(c2ccccc2)=NC1Nc1nnc(-c2ccccc2N2CCOCC2)o1 (centres unmarked) [Example 125] | – | 400 to 800 | – | – | –
O=C1Nc2ccccc2C(c2ccccc2)=NC1Nc1nnc(-c2ccc(F)cc2N2CCOCC2)o1 (centres unmarked) [Example 127] | < 400 | < 400 | – | – | –
O=C1Nc2ccccc2C(c2ccccc2)=NC1Nc1nnc(-c2ccc(-n3cccn3)cc2N2CCOCC2)o1 (centres unmarked) [Example 129] | < 400 | < 400 | – | – | –
N#Cc1ccc(-c2nnc(NC3N=C(c4ccccc4)c4ccccc4NC3=O)o2)c(N2CCOCC2)c1 (centres unmarked) [Example 131] | < 400 | < 400 | – | – | –
O=C1Nc2ccccc2C(c2ccccc2)=N[C@@H]1Nc1nnc(-c2ncc(F)cc2N2CCOCC2)o1 [Example 136, (S)-3-((5-(5-fluoro-3-morpholinopyridin-2-yl)-1,3,4-oxadiazol-2-yl)amino)-5-phenyl-1,3-dihydro-2H-benzo[e][1,4]diazepin-2-one] | < 400 | < 400 | – | – | –
O=C1Nc2ccccc2C(c2ccccc2)=NC1Nc1nnc(-c2ncc(C(F)(F)F)cc2N2CCOCC2)o1 (centres unmarked) [Example 139] | – | – | – | < 400 | < 400
Cc1ccc(-c2nnc(NC3N=C(c4ccccc4)c4ccccc4NC3=O)o2)c(N2CCOCC2)n1 (centres unmarked) [Example 144] | < 400 | < 400 | – | – | –
N#Cc1ccc(-c2nnc(N[C@H]3N=C(c4ccccc4)c4ccccc4NC3=O)o2)c(N2CCOCC2)n1 [Example 153] | < 400 | < 400 | – | – | –

SMILES | EC50 ([1]; HEp-2, 120 h) [nM] | EC50 [2, 4] [nM] | CC50 at 5 days [3] [nM] | EC50 [1, 5] [nM] | EC50 [2, 6] [nM]
Cn1c(N2CCOCC2)c(-c2nnc(N[C@H]3N=C(c4ccccc4)c4ccccc4NC3=O)o2)ccc1=O [Example 155] | < 400 | < 400 | – | – | –
Cc1nc(N2CCOCC2)c(-c2nnc(N[C@H]3N=C(c4ccccc4)c4ccccc4NC3=O)o2)cc1C#N [Example 158] | < 400 | < 400 | – | – | –
N#Cc1cnc(-c2nnc(N[C@H]3N=C(c4ccccc4)c4ccccc4NC3=O)o2)c(N2CCOCC2)c1 [Example 160] | – | < 400 | – | – | –
O=C1Nc2ccccc2C(c2ccccc2)=N[C@@H]1Nc1nnc(-c2ncc(Br)cc2N2CCOCC2)o1 [Example 168] | < 400 | < 400 | – | – | –
O=C1Nc2ccccc2C(c2ccccc2)=N[C@@H]1Nc1nnc(-c2ncc(C3CC3)cc2N2CCOCC2)o1 [Example 169] | < 400 | < 400 | – | – | –
N#Cc1cc(-c2nnc(N[C@H]3N=C(c4ccccc4)c4ccccc4NC3=O)o2)c(N2CCOCC2)nc1C1CC1 [Example 175] | < 400 | 400 to 800 | – | – | –
O=C1Nc2ccccc2C(c2ccccc2)=N[C@@H]1Nc1nnc(-c2oc3ccccc3c2N2CCOCC2)o1 [Example 179] | < 400 | < 400 | – | – | –
CN1CCN(c2ccccc2-c2nnc(NC3N=C(c4ccccc4)c4ccccc4NC3=O)o2)CC1 (centres unmarked) [Example 224] | > 800 | < 400 | – | – | –
O=C1Nc2ccccc2C(c2ccccc2)=N[C@@H]1Nc1nnc(-c2cccnc2N2CCOCC2)o1 [Example 242] | < 400 | < 400 | – | – | –
C[C@@H]1COCCN1c1ncccc1-c1nnc(NC2N=C(c3ccccc3)c3ccccc3NC2=O)o1 (some centres unmarked) [Example 245] | < 400 | 400 to 800 | – | – | –
O=C1Nc2ccccc2C(c2ccccc2)=N[C@@H]1Nc1nnc(-c2ncc(C(F)(F)F)cc2N2C3CCC2COC3)o1 [Example 250] | < 400 | < 400 | – | – | –
O=C1Nc2ccccc2C(c2ccccc2)=N[C@@H]1Nc1nnc(-c2ncc(C(F)(F)F)cc2N2CC3CCC(C2)O3)o1 [Example 251] | < 400 | < 400 | – | – | –
Cc1ccc(-c2nnc(N[C@H]3N=C(c4ccccc4)c4ccccc4NC3=O)o2)c(N2CCOCC2)n1 [Example 252] | < 400 | < 400 | – | – | –
O=C1Nc2ccccc2C(c2ccccc2)=N[C@@H]1Nc1nnc(-c2ncc(C(F)(F)F)cc2N2CCOCC2)o1 [Example 253] | – | – | – | < 400 | < 400
C[C@H]1CN(c2ncccc2-c2nnc(NC3N=C(c4ccccc4)c4ccccc4NC3=O)o2)CCO1 (some centres unmarked) [Example 263] | 400 to 800 | 400 to 800 | – | – | –
COC1CCN(c2cc(C(F)(F)F)cnc2-c2nnc(N[C@H]3N=C(c4ccccc4)c4ccccc4NC3=O)o2)CC1 [Example 268] | > 800 | 400 to 800 | – | – | –
O=C1Nc2ccccc2C(c2ccccc2)=N[C@@H]1Nc1nnc(-c2ncc(C(F)(F)F)cc2N2CCC(F)CC2)o1 [Example 269] | > 800 | 400 to 800 | – | – | –
Cc1nc(-c2nnc(N[C@H]3N=C(c4ccccc4)c4ccccc4NC3=O)o2)c(N2CCOCC2)s1 [Example 272] | < 400 | < 400 | – | – | –
O=C1Nc2ccccc2C(c2ccccc2)=N[C@@H]1Nc1nnc(-c2ccc(C(F)(F)F)nc2N2CC3CCC(C2)O3)o1 [Example 276] | 400 to 800 | > 800 | – | – | –
C[C@@H]1CN(c2cc(C(F)(F)F)cnc2-c2nnc(N[C@H]3N=C(c4ccccc4)c4ccccc4NC3=O)o2)CCO1 [Example 277] | < 400 | < 400 | – | – | –
